In patent US8048874B2, “Beta-lactamyl phenylalanine, cysteine, and serine vasopressin antagonists” (Azevan Pharmaceuticals, Inc., priority 2005, dated 2011):

Legend:
[1] = target: T1, human V1b receptors (Homo sapiens, UniProt P47901); assay: Human vasopressin V1b cell-based receptor binding assay (3H-AVP competition); details: cells expressing human V1b receptor, 1 nM 3H-AVP
T1 construct: expressed in transfected cells
T1 sequence (P47901 1-424): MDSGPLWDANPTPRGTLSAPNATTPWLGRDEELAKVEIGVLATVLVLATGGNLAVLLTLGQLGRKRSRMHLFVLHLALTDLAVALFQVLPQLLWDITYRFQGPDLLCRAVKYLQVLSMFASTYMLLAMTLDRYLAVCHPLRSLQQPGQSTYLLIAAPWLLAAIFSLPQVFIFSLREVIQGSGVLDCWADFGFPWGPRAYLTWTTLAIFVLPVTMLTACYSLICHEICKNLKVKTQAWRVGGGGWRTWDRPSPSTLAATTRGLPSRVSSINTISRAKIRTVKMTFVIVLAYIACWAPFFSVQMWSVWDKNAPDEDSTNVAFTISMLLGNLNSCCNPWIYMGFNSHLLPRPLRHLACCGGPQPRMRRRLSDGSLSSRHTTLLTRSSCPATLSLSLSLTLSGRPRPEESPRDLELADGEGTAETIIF
Excerpt: Human vasopression VIb receptor-expressing cells. Human vasopressin receptor 1B (HV1B) cDNA (see, Lolait et al., “Extrapituitary expression of the rat V1b vasopressin receptor gene” Proc. Natl. Acad. Sci. USA. 92:6783-7 (1995); de Keyzer et al., “Cloning and characterization of the human V3(V1b) pituitary vasopressin receptor” FEBS Lett. 356:215-20 (1994); Sugimoto et al., “Molecular cloning and functional expression of a cDNA encoding the human V1b vasopressin receptor” J. Biol. Chem. 269:27088-92 (1994)) was inserted into a mammalian cell expression vector PCI-neo (Promega) at EcoR1 site. The recombinant plasmid carrying HV1B cDNA was identified from transformed E. Coli clones and used for the transfection of Chinese hamster ovary cell (CHO-K1, ATCC). Two micrograms of HV1B receptor DNA was introduced into 10^5 CHO cells cultured in 6-well plate, using Fugene-6 mediated transfection technique (Boehringer Mannheim). Twenty-four hrs post transfection, Cells were then cultured under selection of G-418 (0.25 mg/ml) supplemented to the culture medium. Three days later, limited dilution was carried out to obtain single cell clones in 96-well plates. […]
Human or rat vasopression V1a, V1b, and/or V2 cell-based receptor binding assay. […] Samples were counted in a liquid scintillation counter (Beckman LS3801). IC50 and Ki values were calculated using Prism Curve fitting software. […]

[2] = target: T2, human V1a receptors (Homo sapiens, UniProt P37288); assay: Human vasopressin V1a cell-based receptor binding assay (3H-AVP competition)
T2 construct: expressed in transfected cells; host or cells: CHO cells
T2 sequence (P37288 whole entry): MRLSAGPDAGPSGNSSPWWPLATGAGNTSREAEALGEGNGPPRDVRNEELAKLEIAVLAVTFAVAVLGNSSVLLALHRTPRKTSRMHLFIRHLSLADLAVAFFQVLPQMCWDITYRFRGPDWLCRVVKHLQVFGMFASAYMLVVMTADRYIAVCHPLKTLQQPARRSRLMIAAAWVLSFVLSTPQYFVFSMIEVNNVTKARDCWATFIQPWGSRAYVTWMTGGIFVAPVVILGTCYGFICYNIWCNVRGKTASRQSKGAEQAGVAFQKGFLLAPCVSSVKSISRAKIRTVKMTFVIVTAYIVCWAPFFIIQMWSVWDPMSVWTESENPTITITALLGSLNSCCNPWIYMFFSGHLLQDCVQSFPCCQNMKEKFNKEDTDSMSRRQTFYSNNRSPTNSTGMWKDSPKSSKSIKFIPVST
Description: Human or rat vasopression V1a, V1b, and/or V2 cell-based receptor binding assay. The V1a, V1b, and/or V2 cell lines (cells expressing either the human or rat V1a, V1b, and/or V2 receptors) were grown in alpha-MEM medium supplemented with 10% fetal bovine serum and 250 ug/ml G418 (Gibco, Grand Island, N.Y.) in 75 cm^2 flask. For competitive binding assay, hV1b cells were dissociated with enzyme-free, PBS based cell dissociation solution (Specialty Media, Phillipursburg, N.J.), following the manufacturer's protocol. Cells were plated into 12-well culture plates at a rate of one flask to 18 plates (rate should be adjusted according to the extent of confluency), and maintained in culture for 2-3 days. Culture medium was then removed, cells were washed once with 2 ml binding buffer (25 mM Hepes, 0.25% BSA, 1×DMEM, PH=7.0) at room temperature. To each well, 990 ul binding buffer containing 1 nM ^3H-AVP was added, and followed by the addition of 10 ul series diluted testing compounds or cold AVP, all dissolved in DMSO. […] Cells were incubated for 30 min at 37° C. in a moisturized incubator. Assay mixture was then removed and each well was washed three times with PBS (pH=7.4). […] Samples were counted in a liquid scintillation counter (Beckman LS3801). IC50 and Ki values were calculated using Prism Curve fitting software. […]

IC50 ([1]; read-out: Human V1b Binding Affinity (IC50 (μM))): 1.1 µM
Ki ([1]; read-out: Human V1b Binding Affinity (Ki (μM))): 0.69 µM
Ki ([2]; FIG. 1, competitive binding assay in CHO cells transfected with human V1a receptor, read-out: human V1b binding affinity (Ki)): 0.07 nM
IC50 ([2]; cells expressing human V1a receptor, 1 nM 3H-AVP, read-out: Human V1a Binding Affinity (IC50 (nM))): 0.11 nM
Compound: O=C(C(CSCc1ccccc1)N1C(=O)C(N2C(=O)OCC2c2ccccc2)C1C=Cc1ccccc1)N1CCC(CCN2CCCCC2)CC1 [Example 9B, (2S)-(Benzylthiomethyl)-2-[3(S)-(4(S)-phenyloxazolidin-2-on-3-yl)-4(R)-(2-styryl)azetidin-2-on-1-yl]acetic acid N-[4-[2-(piperid-1-yl)ethyl]piperidin-1-yl]amide]
